Results: patent publication US6015823A, “4-Cyclohexylphenyl-oxazolines and their use for controlling animal pests” (Bayer Aktiengesellschaft, priority 1996, dated 2000)
Where two headings read alike, the source gives them in different places.

Test: logp: n-octanol/water partition coefficient by reversed phase HPLC
Format: physicochemical
Details: h2o/ch3cn, read-out: logp (logarithm to base ten of the n-octanol/water partition coefficient)
Excerpt: *) logp: Logarithm to base ten of the n-octanol/water partition coefficient, determined by reversed phase HPLC analysis using H2 O/CH3 CN.
*^) logp: Logarithm to base ten of the noctanol/water partition
coefficient, determined by reversed phase HPLC analysis using H2

[1] = A isomer (possible geometric isomer)
[2] = B isomer (possible geometric isomer)

OC1CCC(c2ccc(C3COC(c4c(F)cccc4F)=N3)cc2)CC1 (single isomer, unassigned) [Example 2, 2-(2,6-difluorophenyl)-4-[4-(4-hydroxycyclohexyl)phenyl]-1,3-oxazoline]
chromatographic logP: 2.53

O=C1CCC(c2ccc(C(CCl)NC(=O)c3c(F)cccc3F)cc2)CC1 (centres unmarked) [2-(2,6-difluorobenzoylamido)-2-[4-(4-oxo-cyclohexyl)phenyl]-chloroethane]
chromatographic logP: 2.54

ON=C1CCC(c2ccc(C3COC(c4c(F)cccc4F)=N3)cc2)CC1 (centres unmarked) [Example 3, 2-(2,6-difluorophenyl)-4-[4-(4-oximino-cyclohexyl)phenyl]-1,3-oxazoline]
chromatographic logP: 2.57

OC1CCC(c2ccc(C3COC(c4c(F)cccc4F)=N3)cc2)CC1 (centres unmarked) [Example 7]
chromatographic logP: 2.74

Fc1cccc(F)c1C1=NC(c2ccc(C3CCC4(CC3)OCCO4)cc2)CO1 (centres unmarked) [Example 11]
chromatographic logP: 3.46

CCCCCCCCCCCCCCCC1COC2(CCC(c3ccc(C4COC(c5c(F)cccc5F)=N4)cc3)CC2)O1 (centres unmarked) [Example 18]
chromatographic logP: 9

CC1CC(C)(C)OC2(CCC(c3ccc(C4COC(c5c(F)cccc5F)=N4)cc3)CC2)O1 (centres unmarked) [Example 26]
chromatographic logP [1]: 5.12 | chromatographic logP [2]: 5.19

CCC1COC2(CCC(c3ccc(C4COC(c5c(F)cccc5F)=N4)cc3)CC2)O1 (centres unmarked) [Example 27]
chromatographic logP: 4.43

CCCC1COC2(CCC(c3ccc(C4COC(c5c(F)cccc5F)=N4)cc3)CC2)O1 (centres unmarked) [Example 28]
chromatographic logP: 4.52

CC1CCOC2(CCC(c3ccc(C4COC(c5c(F)cccc5F)=N4)cc3)CC2)O1 (centres unmarked) [Example 29]
chromatographic logP [1]: 3.95 | chromatographic logP [2]: 3.98

CCCCC1COC2(CCC(c3ccc(C4COC(c5c(F)cccc5F)=N4)cc3)CC2)O1 (centres unmarked) [Example 30]
chromatographic logP [1]: 5.35 | chromatographic logP [2]: 5.4

CC1CC(C)OC2(CCC(c3ccc(C4COC(c5c(F)cccc5F)=N4)cc3)CC2)O1 (centres unmarked) [Example 31]
chromatographic logP [1]: 4.52 | chromatographic logP [2]: 4.84

Fc1cccc(F)c1C1=NC(c2ccc(C3CCC4(CC3)OCCCO4)cc2)CO1 (centres unmarked) [Example 32]
chromatographic logP: 3.47

CC1(C)COC2(CCC(c3ccc(C4COC(c5c(F)cccc5F)=N4)cc3)CC2)OC1 (centres unmarked) [Example 33]
chromatographic logP: 4.5

CCCCCCCCC1COC2(CCC(c3ccc(C4COC(c5c(F)cccc5F)=N4)cc3)CC2)O1 (centres unmarked) [Example 34]
chromatographic logP [1]: 7.19 | chromatographic logP [2]: 7.28

CCCCON=C1CCC(c2ccc(C3COC(c4c(F)cccc4F)=N3)cc2)CC1 (centres unmarked) [Example 36]
chromatographic logP: 4.95

CCCC1(C)COC2(CCC(c3ccc(C4COC(c5c(F)cccc5F)=N4)cc3)CC2)OC1 (centres unmarked) [Example 37]
chromatographic logP: 5.46

CCC1(CC)COC2(CCC(c3ccc(C4COC(c5c(F)cccc5F)=N4)cc3)CC2)OC1 (centres unmarked) [Example 38]
chromatographic logP: 5.4

Fc1cccc(F)c1C1=NC(c2ccc(C3CCC4(CC3)OCC(c3ccc(Br)cc3)O4)cc2)CO1 (centres unmarked) [Example 39]
chromatographic logP [1]: 5.36 | chromatographic logP [2]: 5.51

CC1(c2ccccc2)COC2(CCC(c3ccc(C4COC(c5c(F)cccc5F)=N4)cc3)CC2)OC1 (centres unmarked) [Example 40]
chromatographic logP: 5.11

Fc1cccc(F)c1C1=NC(c2ccc(C3CCC4(CC3)OCC(COc3ccccc3)O4)cc2)CO1 (centres unmarked) [Example 41]
chromatographic logP [1]: 4.73 | chromatographic logP [2]: 4.75

Cc1cc(C)cc(OCC2COC3(CCC(c4ccc(C5COC(c6c(F)cccc6F)=N5)cc4)CC3)O2)c1 (centres unmarked) [Example 42]
chromatographic logP [1]: 5.44 | chromatographic logP [2]: 5.48

Fc1cccc(F)c1C1=NC(c2ccc(C3CCC4(CC3)OCC(c3c(F)cccc3F)O4)cc2)CO1 (centres unmarked) [Example 43]
chromatographic logP [1]: 4.77 | chromatographic logP [2]: 4.86

COc1ccc(C2COC3(CCC(c4ccc(C5COC(c6c(F)cccc6F)=N5)cc4)CC3)OC2)cc1 (centres unmarked) [Example 44]
chromatographic logP: 4.61

Fc1cccc(F)c1C1=NC(c2ccc(C3CCC4(CC3)OCC(Br)(c3ccc(Cl)cc3)O4)cc2)CO1 (centres unmarked) [Example 45]
chromatographic logP [1]: 5.96 | chromatographic logP [2]: 6.2
